Measured values taken from the C3SDB collision cross section collection.
Where “and” joins values, the source holds several entries; their conditions need not be identical. Identical values can stand only once.

Settings: instrument: DT, single field, calibrated with ESI Low Concentration Tuning Mix (Agilent)

SMILES | collision cross section (N2) ([M+H]+) | collision cross section (N2) ([M+Na]+) | collision cross section (N2) ([M-H]-) | collision cross section (N2) ([M+Na-2H]-) | collision cross section (N2) ([M+H2O-H]-)
O=C(O)[C@H]1C[C@@H](O)CN1 [CIS-4-HYDROXY-D-PROLINE] | 128.3 Å² | 130.6 Å² | 124.3 Å² |  | 
CC(O)(CC(=O)O)C(=O)O (configuration not stated) [CITRAMALATE] |  | 133.2 Å² | 122 Å² |  | 
N[C@@H](Cc1ccc(O)c([N+](=O)[O-])c1)C(=O)O [3-NITRO-L-TYROSINE] | 158.2 Å² | 154.5 Å² | 148.9 Å² | 147.7 Å² | 
N[C@@H](Cc1cc(I)c(O)c(I)c1)C(=O)O [3,5-DIIODO-L-TYROSINE] | 171.1 Å² | 165.2 Å² | 159.3 Å² |  | 
Nc1ncnc2c1ncn2[C@H]1C[C@H](O)[C@@H](COP(=O)(O)O)O1 [DEOXYADENOSINE MONOPHOSPHATE] | 168.5 Å² | 173 Å² | 164.9 Å² | 169.8 Å² | 
Nc1ccccc1C(=O)O [ANTHRANILATE] |  |  | 125.5 Å² |  | 
CC(C)=CC(=O)SCCNC(=O)CCNC(=O)C(O)C(C)(C)COP(=O)(O)OP(=O)(O)OC[C@H]1O[C@@H](n2cnc3c(N)ncnc32)[C@H](O)[C@@H]1OP(=O)(O)O (some centres not stated) [3-METHYLCROTONYL-COA] | 256.1 Å² |  | 256.7 Å² | 266.9 Å² | 
Nc1c(O)cccc1C(=O)O [3-HYDROXYANTHRANILATE] | 131.2 Å² |  | 127.8 Å² |  | 
Nc1ccn([C@@H]2O[C@H](COP(=O)(O)O)[C@@H](O)[C@H]2O)c(=O)n1 [CYTIDINE MONOPHOSPHATE] | 166.8 Å² and 167 Å² | 167.9 Å² and 168 Å² | 164.4 Å² and 164.5 Å² | 163.2 Å² and 163.4 Å² | 
N[C@@H](Cc1cnc[nH]1)C(=O)O [HISTIDINE] | 131.7 Å² and 132.1 Å² | 134.6 Å² and 134.8 Å² | 128.1 Å² and 128.5 Å² |  | 
O=C(O)c1ccc([O-])cc1 [4-HYDROXYBENZOATE] |  |  | 121.2 Å² |  | 
NC(CCCC(=O)O)C(=O)O (configuration not stated) [AMINOADIPATE] | 134.6 Å² | 139.2 Å² | 129.9 Å² | 134 Å² | 
NCC(=O)CCC(=O)O [5-AMINOLEVULINATE] | 130.7 Å² |  |  |  | 
NC(CCSCC(N)C(=O)O)C(=O)O (configuration not stated) [CYSTATHIONINE] | 147.3 Å² | 147.1 Å² | 141.9 Å² | 144.6 Å² | 
CC(C)(COP(=O)(O)OP(=O)(O)OC[C@H]1O[C@@H](n2cnc3c(N)ncnc32)[C@H](O)[C@@H]1OP(=O)(O)O)[C@@H](O)C(=O)NCCC(=O)NCCSC(=O)C[C@@](C)(O)CC(=O)O [3-HYDROXY-3-METHYLGLUTARYL-COA] | 265.4 Å² | 266.2 Å² | 261.9 Å² | 267.3 Å² | 
O=C(O)c1cc(O)ccc1[O-] [2,5-DIHYDROXYBENZOATE] |  |  | 124.6 Å² |  | 
NC(=O)NC1NC(=O)NC1=O (configuration not stated) [ALLANTOIN] |  | 142.2 Å² | 125.5 Å² |  | 
NCCc1cnc[nH]1 [HISTAMINE] | 120.4 Å² |  |  |  | 
Nc1ncnc2c1ncn2C1OC(CO)C2OP(=O)(O)OC21 (configuration not stated) [ADENOSINE 2',3'-CYCLIC PHOSPHATE] | 168.1 Å² | 175.1 Å² and 181 Å² | 169.4 Å² |  | 173.5 Å²
Nc1ccn([C@H]2C[C@H](O)[C@@H](COP(=O)(O)O)O2)c(=O)n1 [DEOXYCYTIDINE MONOPHOSPHATE] |  | 157 Å² and 164.7 Å² | 162.4 Å² |  | 
C[N+](C)(C)C[C@@H](CC(=O)[O-])OC(=O)CCCC(=O)O [GLUTARYLCARNITINE] | 161.1 Å² | 167.1 Å² | 165.3 Å² |  | 
Nc1ccnc(=O)[nH]1 [CYTOSINE] | 122.8 Å² |  |  |  | 

Results, then the compound that gave them:

collision cross section (N2) ([M+H]+) | collision cross section (N2) ([M+Na]+) | collision cross section (N2) ([M-H]-) | collision cross section (N2) ([M+Na-2H]-) | collision cross section (N2) ([M+H2O-H]-) | SMILES
 | 149.9 Å² | 140.5 Å² |  |  | CC(=O)N[C@@H](CC(C)C)C(=O)O [N-ACETYLLEUCINE]
132.2 Å² |  | 129.5 Å² | 137.2 Å² |  | CN[C@@H](CCC(=O)O)C(=O)O [N-METHYLGLUTAMATE]
126.7 Å² |  | 120.2 Å² |  |  | C[C@@H](O)[C@H](N)C(=O)O [THREONINE]
213.9 Å² | 219.7 Å² |  |  |  | CCCCCCCCCCCCCCCC(=O)OC(CC(=O)[O-])C[N+](C)(C)C (configuration not stated) [PALMITOYLCARNITINE]
127.9 Å² | 139.3 Å² | 126.2 Å² and 126.3 Å² |  |  | O=C(O)[C@@H]1C[C@@H](O)CN1 [TRANS-4-HYDROXY-L-PROLINE]
125.1 Å² |  | 124.5 Å² |  |  | O=C(O)[C@@H]1CCCN1 [PROLINE]
 | 138 Å² and 138.4 Å² |  |  |  | C=C(OP(=O)(O)O)C(=O)O [PHOSPHOENOLPYRUVATE]
158 Å² | 158.8 Å² | 151.6 Å² | 154.2 Å² |  | NC(CCSSCCC(N)C(=O)O)C(=O)O (configuration not stated) [HOMOCYSTINE]
 | 151.7 Å² | 134.5 Å² |  |  | O=C(O)C1(O)C[C@@H](O)C(O)[C@H](O)C1 (some centres not stated) [QUINATE]
 | 136.2 Å² | 125.8 Å² |  |  | OC[C@@H](O)C(O)[C@@H](O)CO (some centres not stated) [RIBITOL]
 | 134.9 Å² |  |  |  | OC1OC[C@@H](O)[C@H](O)[C@H]1O (some centres not stated) [XYLOSE]
187 Å² | 188.8 Å² | 180.1 Å² and 180.2 Å² | 190.2 Å² |  | O=c1ccn([C@@H]2O[C@H](COP(=O)(O)OP(=O)(O)OP(=O)(O)O)[C@@H](O)[C@H]2O)c(=O)[nH]1 [URIDINE TRIPHOSPHATE]
 | 139.8 Å² | 118.9 Å² |  |  | O=C(O)c1c[nH]c(=O)[nH]c1=O [URACIL 5-CARBOXYLATE]
 |  | 121 Å² |  |  | O=C([O-])c1cccnc1 [NICOTINATE]
130.3 Å² |  | 143.6 Å² | 127.6 Å² |  | N[C@@H](CCS)C(=O)O [HOMOCYSTEINE]
 |  | 115.9 Å² |  |  | O=C(O)CC(O)C(=O)O (configuration not stated) [MALATE]
 | 132.9 Å² | 128.7 Å² |  |  | C[C@@](O)(CCO)CC(=O)[O-] [MEVALONATE]
 |  | 130.2 Å² |  |  | O=C([O-])C(O)c1ccccc1 (configuration not stated) [MANDELATE]
 | 131.7 Å² | 118.7 Å² |  |  | C=C(CC(=O)O)C(=O)O [ITACONATE]
